{"source": "patent US8357504B2", "about": "“Method and kit for the microbiological determination of vitamins in substance mixtures” (IFP Privates Institut fur Produktqualitat GmbH, priority 2004, dated 2013)", "format_in_all_cases": "cell-based", "details_in_all_cases": "for Average value (measurement at 630 nm): number 3; for Measurement at 630 nm: single well", "key": {"[1]": {"test_system": "Lactobacillus planatarum ATTC 8014", "experiment": "Microbiological calcium pantothenate determination (growth turbidity)", "method": "[table] The preparation of the microtitration plate and the determination of […] 800 μg/L, p-aminobenzoic acid 200.0 μg/L, biotin 1.0 μg/L, potassium dihydrogen phosphate 1.0 g/L, dipotassium hydrogen phosphate 1.0 g/L, magnesium sulfate 0.4 g/L, sodium chloride 20.0 mg/L, iron sulfate 20.0 mg/L, manganese sulfate 20.0 mg/L. The storage medium further contained 200 mM trehalose."}, "[2]": {"test_system": "Lactobacillus rhamnosus ATCC 7469", "experiment": "Microbiological folic acid determination (growth turbidity, folic acid-casein medium)", "source_text": "The preparation of the microtitration plate and the determination of folic acid (pteroylglutaminic acid and other folic acid conjugates) was effected as in Example 1, except only that Lactobacillus rhamnosus ATCC 7469 was employed as test organism. There was employed as assay medium Difco™ folic acid-casein medium, containing activated carbon treated pancreas digested casein 10.0 g/L, dextrose 40.0 g/L, sodium acetate 40.0 g/L, potassium dihydrogen phosphate 1.0 g/L, dipotassium hydrogen phosphate 1.0 g/L, DL-tryptophane 0.2 g/L, L-asparagine 0.6 g/L, L-cystein hydrochloride 0.5 g/L, adenine sulfate 10.0 mg/L, guanine hydrochloride 10.0 mg/L, uracil 10.0 mg/L, xanthin 20.0 mg/L, Polysorbate-80 0.1 g/L, glutathion (reduced) 5.0 mg/L, magnesium sulfate 0.2 g/L, sodium chloride 20.0 mg/L, iron sulfate 20.0 mg/L, manganese sulfate 15.0 mg/L, riboflavin 1.0 mg/L, p-aminobenzoic acid 2.0 mg/L, pyridoxine hydrochloride 4.0 mg/L, thiamine hydrochloride 400.0 μg/L, calcium pantothenate 800.0 μg/L, nicotinic acid 800.0 μg/L, biotin 20.0 μg/L, 0.05% ascorbic acid. The storage medium contained 200 mM trehalose. The folic acid standard was dissolved in 100 mMol potassium phosphate buffer, pH 6.1, 0.1% ascorbic acid."}, "[3]": {"test_system": "Saccharomyces cerevisae ATCC 9080", "experiment": "Microbiological B6 pyridoxine determination (growth turbidity, pyridoxine-Y-medium)", "method": "The preparation of the microtitration plate and the determination of B6-pyridoxine was effected as in Example 1, except only that as test organism Saccharomyces cerevisae ATCC 9080 was employed. As assay medium there was employed Difco™ pyridoxine-Y-medium, containing dextrose 40.0 g/L, L-asparagine 4.0 g/L, ammonium sulfate 4.0 g/L potassium dihydrogen phosphate 3.0 g/L, magnesium sulfate 1.0 g/L, calcium chloride 0.49 g/L, DL-methionine 40.0 mg/L, DL-tryptophane 40.0 mg/L, DL-isoleucin 40.0 mg/L, DL-valin 40.0 mg/L, L-histidine hydrochloride 20.0 mg/L, riboflavin 20.0 mg/L, biotin 8.0 mg/L, inositol 5.0 mg/L, iron sulfate 500 μg/L, thiamine hydrochloride 400.0 μg/L, calcium pantothenate 400.0 μg/L, nicotinic acid 400.0 μg/L, boric acid 200.0 μg/L, potassium iodide 200.0 μg/L, ammonium molybdate 40.0 μg/L, manganese sulfate 80.0 μg/L, copper sulfate 90.0 μg/L, zinc sulfate 80.0 μg/L. The storage medium further contained 200 mM trehalose."}, "[4]": {"test_system": "Lactobacillus delbrueckii subsp. Lactis (L. leichmanii) ATCC 7830", "experiment": "Microbiological vitamin B12 determination (growth turbidity, B12 assay medium)", "source_text": "The preparation of the microtitration plate and the determination of vitamin B12 (cyanocobalamine, hydroxycobalamine) was effected as in Example 1, except only that Lactobacillus delbrueckii subsp. Lactis (L. leichmanii) ATCC 7830 was employed as test organism. As assay medium there served Difco™ B12 assay medium, containing casamino acids 15.0 g/L, dextrose 40.0 g/L, asparagine 0.2 g/L, sodium acetate 20.0 g/L, Ascorbic acid 4.0 g/L, L-cystein 4.0 g/L, DL-tryptophane 0.4 g/L, adenine sulfate 20.0 mg/L, guanine hydrochloride 20.0 mg/L, uracil 20.0 mg/L, xanthin 20.0 mg/L, polysorbate-80 2.0 g/L, magnesium sulfate (water-free) 0.4 mg/L, sodium chloride 20.0 mg/L, iron sulfate 20.0 mg/L, manganese sulfate 20.0 mg/L, riboflavin 1.0 mg/L, p-aminobenzoic acid 2.0 mg/L, pyridoxine hydrochloride 4.0 mg/L, thiamine hydrochloride 1.0 mg/L, calcium pantothenate 1.0 mg/L, niacin 2.0 mg/L, biotin 10.0 ug/L, pyridoxine hydrochloride 4.0 mg/L, pyridoxal hydrochloride 4.0 mg/L, pyridoxamine hydrochloride 800.0 ug/L, […], potassium dihydrogen phosphate 1.0 g/L, dipotassium hydrogen phosphate 1.0 g/L. The storage medium further contained 200 mM trehalose."}, "[5]": {"test_system": "Lactobacillus plantarum ATCC 8014", "experiment": "Microbiological biotin determination (growth turbidity, biotin assay medium)", "method": "The preparation of the microtitration plate and determination of biotin was effected as in Example 1 with Lactobacillus plantarum ATCC 8014. There served as assay medium Difco™ biotin assay medium, containing casamino acids 12.0 g/L, dextrose 40.0 g/L, sodium acetate 20.0 g/L, L-cystein 0.2 g/L, DL-tryptophane 0.2 g/L, adenine sulfate 20.0 mg/L, guanine hydrochloride 20.0 mg/L, uracil 20.0 mg/L, thiamine hydrochloride 2.0 mg/L, riboflavin 2.0 mg/L, niacin 2.0 mg/L, calcium pantothenate 2.0 mg/L, pyridoxine hydrochloride 4.0 mg/L, p-aminobenzoic acid 0.2 mg/L, magnesium sulfate (water-free) 0.4 mg/L, sodium chloride 20.0 mg/L, iron sulfate 20.0 mg/L, manganese sulfate 20.0 mg/L, potassium dihydrogen phosphate 1.0 g/L, dipotassium hydrogen phosphate 1.0 g/L. The storage medium further contain 200 mM trehalose. The determined standard curve is show in FIG. 4."}, "[6]": {"details": "Ca pantothenate standard 0.08 mg/100 g"}, "[7]": {"details": "Ca pantothenate standard 0.16 mg/100 g"}, "[8]": {"details": "Ca pantothenate standard 0.32 mg/100 g"}, "[9]": {"details": "Ca pantothenate standard 0.48 mg/100 g"}, "[10]": {"details": "Ca pantothenate standard 0.64 mg/100 g"}, "[11]": {"details": "folic acid standard 3.75 pg/150 μl (0.25 μg/100 g)"}, "[12]": {"details": "folic acid standard 7.5 pg/150 μl (0.5 μg/100 g)"}, "[13]": {"details": "folic acid standard 15 pg/150 μl (1 μg/100 g)"}, "[14]": {"details": "folic acid standard 22.5 pg/150 μl (1.5 μg/100 g)"}, "[15]": {"details": "folic acid standard 30 pg/150 μl (2 μg/100 g)"}, "[16]": {"details": "B6-pyridoxine standard 0.004 mg/100 g"}, "[17]": {"details": "B6-pyridoxine standard 0.008 mg/100 g"}, "[18]": {"details": "B6-pyridoxine standard 0.012 mg/100 g"}, "[19]": {"details": "B6-pyridoxine standard 0.016 mg/100 g"}, "[20]": {"details": "B6-pyridoxine standard 0.024 mg/100 g"}, "[21]": {"details": "vitamin B12 standard 0.1 μg/100 g"}, "[22]": {"details": "vitamin B12 standard 0.2 μg/100 g"}, "[23]": {"details": "vitamin B12 standard 0.3 μg/100 g"}, "[24]": {"details": "vitamin B12 standard 0.4 μg/100 g"}, "[25]": {"details": "vitamin B12 standard 0.8 μg/100 g"}}, "note": "Several values for one entry are separate records, joined by “and”; a condition that tells them apart may be missing. Identical values can stand only once."}
{"compound": "calcium pantothenate [Ca pantothenate]", "values": [{"measurement": "Average value (measurement at 630 nm)", "setting": "[1]; [6]", "value": 0.076}, {"measurement": "Measurement at 630 nm", "setting": "[1]; [6]", "value": "0.075 and 0.08 and 0.073"}, {"measurement": "Average value (measurement at 630 nm)", "setting": "[1]; [7]", "value": 0.179}, {"measurement": "Measurement at 630 nm", "setting": "[1]; [7]", "value": "0.179 and 0.178 and 0.181"}, {"measurement": "Average value (measurement at 630 nm)", "setting": "[1]; [8]", "value": 0.395}, {"measurement": "Measurement at 630 nm", "setting": "[1]; [8]", "value": "0.389 and 0.404 and 0.392"}, {"measurement": "Average value (measurement at 630 nm)", "setting": "[1]; [9]", "value": 0.491}, {"measurement": "Measurement at 630 nm", "setting": "[1]; [9]", "value": "0.49 and 0.493 and 0.491"}, {"measurement": "Average value (measurement at 630 nm)", "setting": "[1]; [10]", "value": 0.59}, {"measurement": "Measurement at 630 nm", "setting": "[1]; [10]", "value": "0.589 and 0.594 and 0.588"}]}
{"compound": "Nc1nc2ncc(CNc3ccc(C(=O)N[C@@H](CCC(=O)O)C(=O)O)cc3)nc2c(=O)[nH]1", "note": "[Folic acid, folic acid]", "values": [{"measurement": "Average value (measurement at 630 nm)", "setting": "[2]; [11]", "value": 0.264}, {"measurement": "Measurement at 630 nm", "setting": "[2]; [11]", "value": "0.269 and 0.261"}, {"measurement": "Average value (measurement at 630 nm)", "setting": "[2]; [12]", "value": 0.545}, {"measurement": "Measurement at 630 nm", "setting": "[2]; [12]", "value": "0.556 and 0.536 and 0.544"}, {"measurement": "Average value (measurement at 630 nm)", "setting": "[2]; [13]", "value": 0.793}, {"measurement": "Measurement at 630 nm", "setting": "[2]; [13]", "value": "0.784 and 0.788 and 0.807"}, {"measurement": "Average value (measurement at 630 nm)", "setting": "[2]; [14]", "value": 0.999}, {"measurement": "Measurement at 630 nm", "setting": "[2]; [14]", "value": "0.986 and 1.002 and 1.01"}, {"measurement": "Average value (measurement at 630 nm)", "setting": "[2]; [15]", "value": 1.094}, {"measurement": "Measurement at 630 nm", "setting": "[2]; [15]", "value": "1.121 and 1.074 and 1.087"}]}
{"compound": "Cc1ncc(CO)c(CO)c1O", "note": "[B6-pyridoxine, pyridoxine]", "values": [{"measurement": "Average value (measurement at 630 nm)", "setting": "[3]; [16]", "value": 0.299}, {"measurement": "Measurement at 630 nm", "setting": "[3]; [16]", "value": "0.298 and 0.297 and 0.301"}, {"measurement": "Average value (measurement at 630 nm)", "setting": "[3]; [17]", "value": 0.4}, {"measurement": "Measurement at 630 nm", "setting": "[3]; [17]", "value": "0.407 and 0.398 and 0.394"}, {"measurement": "Average value (measurement at 630 nm)", "setting": "[3]; [18]", "value": 0.538}, {"measurement": "Measurement at 630 nm", "setting": "[3]; [18]", "value": "0.522 and 0.541 and 0.552"}, {"measurement": "Average value (measurement at 630 nm)", "setting": "[3]; [19]", "value": 0.753}, {"measurement": "Measurement at 630 nm", "setting": "[3]; [19]", "value": "0.73 and 0.766 and 0.762"}, {"measurement": "Average value (measurement at 630 nm)", "setting": "[3]; [20]", "value": 1.069}, {"measurement": "Measurement at 630 nm", "setting": "[3]; [20]", "value": "1.049 and 1.088 and 1.07"}]}
{"compound": "cyanocobalamine [Vitamin B12]", "values": [{"measurement": "Average value (measurement at 630 nm)", "setting": "[4]; [21]", "value": 0.268}, {"measurement": "Measurement at 630 nm", "setting": "[4]; [21]", "value": "0.264 and 0.271 and 0.269"}, {"measurement": "Average value (measurement at 630 nm)", "setting": "[4]; [22]", "value": 0.515}, {"measurement": "Measurement at 630 nm", "setting": "[4]; [22]", "value": "0.51 and 0.503 and 0.531"}, {"measurement": "Average value (measurement at 630 nm)", "setting": "[4]; [23]", "value": 0.728}, {"measurement": "Measurement at 630 nm", "setting": "[4]; [23]", "value": "0.727 and 0.721 and 0.736"}, {"measurement": "Average value (measurement at 630 nm)", "setting": "[4]; [24]", "value": 0.869}, {"measurement": "Measurement at 630 nm", "setting": "[4]; [24]", "value": "0.88 and 0.863 and 0.865"}, {"measurement": "Average value (measurement at 630 nm)", "setting": "[4]; [25]", "value": 1.069}, {"measurement": "Measurement at 630 nm", "setting": "[4]; [25]", "value": "1.086 and 1.073 and 1.048"}]}
{"compound": "O=C(O)CCCC[C@@H]1SC[C@@H]2NC(=O)N[C@@H]21", "note": "[Biotin, biotin]", "values": [{"measurement": "Average value (measurement at 630 nm)", "setting": "[5]; biotin standard 0.003 μg/100 g", "value": 0.204}, {"measurement": "Measurement at 630 nm", "setting": "[5]; biotin standard 0.003 μg/100 g", "value": "0.205 and 0.204 and 0.203"}, {"measurement": "Average value (measurement at 630 nm)", "setting": "[5]; biotin standard 0.009 μg/100 g", "value": 0.499}, {"measurement": "Measurement at 630 nm", "setting": "[5]; biotin standard 0.009 μg/100 g", "value": "0.506 and 0.5 and 0.491"}, {"measurement": "Average value (measurement at 630 nm)", "setting": "[5]; biotin standard 0.015 μg/100 g", "value": 0.685}, {"measurement": "Measurement at 630 nm", "setting": "[5]; biotin standard 0.015 μg/100 g", "value": "0.676 and 0.693 and 0.686"}, {"measurement": "Average value (measurement at 630 nm)", "setting": "[5]; biotin standard 0.021 μg/100 g", "value": 0.823}, {"measurement": "Measurement at 630 nm", "setting": "[5]; biotin standard 0.021 μg/100 g", "value": "0.826 and 0.822 and 0.82"}, {"measurement": "Average value (measurement at 630 nm)", "setting": "[5]; biotin standard 0.027 μg/100 g", "value": 0.985}, {"measurement": "Measurement at 630 nm", "setting": "[5]; biotin standard 0.027 μg/100 g", "value": "0.986 and 0.988 and 0.982"}]}
